Assay [1] deals with Mycobacterium tuberculosis. Kind of assay: Antimycobacterial activity against multidrug-resistant Mycobacterium tuberculosis by agar dilution method. It is filed as functional. (In general: In agar dilution the substance is mixed into plates at graded concentrations.)
For assay [2], the system named is Mycobacterium tuberculosis. Kind of assay: Antimycobacterial activity against rifampicin-resistant Mycobacterium tuberculosis by agar dilution method. Format: functional.

Converted amounts (≈) assume the structure as drawn.

What is called MIC is the least concentration at which growth counts as inhibited. A higher MIC goes with a need for much substance. On to `COc1ccc(C(c2ccc(OCCN(C(C)C)C(C)C)cc2)c2cccs2)cc1` (configuration not stated), for which the MIC in assay [1] and in assay [2] was 6.25 µM (≈ 2.65 µg/mL) throughout.

Source of the values: ChEMBL document CHEMBL3414533, “Thiophene containing trisubstituted methanes [TRSMs] as identified lead against Mycobacterium tuberculosis” (Eur J Med Chem, 2015).
